# Test results from patent US11985974B2, “Antimicrobial ferulic acid derivatives and uses thereof” (WISCONSIN ALUMNI RESEARCH FOUNDATION, priority 2014, dated 2024).
# System: T1, β-1,3-glucan synthase
# T1 construct: membrane fraction was prepared from S. cerevisiae BY4741
# Experiment: β-1,3-glucan synthase activity in the membrane fraction
# Format: biochemical, S. cerevisiae BY4741
# Conditions: 25° C., 30 min
# Method: After the membrane fraction was prepared from S. cerevisiae BY4741 as described previously (n=3) (Abe et al. 2001), β-1,3-glucan synthase activity was measured as described previously (n=3) (Inoue et al. 1995) with slight modification. Briefly, 20 μL membrane fraction (˜70 μg total protein) was added to a reaction mixture (final volume of 100 μL) containing 50 mM Tris·HCl, pH 7.5, 10 mM potassium fluoride, 1 mM EDTA, 0.2 mM UDP-Glc (with 89 Bq UDP-[Glucose-14C]; NEC403; PerkinElmer), and different concentrations of poacic acid (1.25, 2.5, 5, 10, 20, 40, 80, 160, or 320 μg/mL). The reaction mixture was incubated at 25° C. for 30 min and stopped by the addition of ethanol. To trap reaction product (β-1,3-glucan polymer), the reaction mixture was filtered through the membrane filter (mixed cellulose esters; 0.2 μm in pore size; ADVANTEC), washed one time with 2 mL distilled water, and dried at room temperature. After addition of scintillation mixture (Econofluor-2; PerkinElmer), radioactivity was measured by a scintillation counter (LSC-6100; Aloka) Inhibition curves and IC50 values were determined using R software (ver. 3.0.1) by sigmoidal curve fitting with the glm function.
smiles,measurement,value
"COc1cc(/C=C/c2cc(/C=C/C(=O)O)cc(OC)c2O)ccc1O [poacic acid, (E)-4-Hydroxy-3-{2-[(E)-4-hydroxy-3-methoxystyryl]}-5-methoxycinnamic acid]","IC50 (β-1,3-glucan synthase activity in vitro)",31 µg/mL
